Data set [1] concerns COVID-19 patients. As to conditions: cited from earlier work; for inflammatory markers (CRP and ferritin): during IV N-acetylcysteine administration.
The conditions of data set [2]: in vivo, cited from earlier work.
The test system of data set [3] is ARDS patients. The following applies: intravenous, P<0.001; cited from earlier work.
The conditions of data set [4]: Alzheimer patients, 200 microg/day, cited from earlier work.
For data set [5] the following is noted: elderly subjects, six months of 45 mg zinc/day as a gluconate; cited from earlier work.
The test system of data set [6] is COVID-19 coronavirus in human lung cells. In words: Antiviral potency in human lung cells. In kind it is cell-based. How it is done:
Earlier research of Nafamostat indicated it would not have sufficient concentration in the plasma to cause death of the virus. This was based on trialing drugs in monkey kidney cells. It was determined it would be more realistic to trial the drugs in human lung cells. The results were dramatic in that vastly different effects resulted.

For data set [7] the test system is unchanged. As to conditions: read-out: 50% kill rate IC50; cited from earlier work.
The test system of data set [8] is COVID-infected cells. As to conditions: cited from earlier work.
The subject of data set [9] is COVID-19 patients. The following applies: 50 treated patients, cited from earlier work.
Data set [10] deals with SARS-Cov-2. Briefly: Inhibition of replication of SARS-Cov-2. The class given is cell-based.
Data set [11] deals with SARS-Cov-2. As to conditions: replication of SARS-Cov-2, cited from earlier work.
In data set [12] the test system is severe COVID patients. As to conditions: cited from earlier work.
Data set [13] relates to COVID-19. As to conditions: cited from earlier work.

Consider eight compounds from patent US20230201149A1, “METHODS OF ANTIPATHOGENIC TREATMENT” (priority 2020, published 2023).

Read-outs that look alike come from different tables or passages of the source.

Consider `CC(=O)N[C@@H](CS)C(=O)O` [N-acetylcysteine], for which, in data set [1] (G6PD-deficient patient, IV NAC 600 mg every 12 h for six days), the “bilirubin (total and direct)” value is “sustained reduction”. Further, the ALT in [1] (G6PD-deficient patient, after IV NAC 30,000 mg over 24 h for two days, peak before 263) is 100 U/L. Further, the AST in data set [1] (G6PD-deficient patient, after IV NAC 30,000 mg over 24 h for two days, peak before 338) is recorded as 62 U/L. The NLR result in data set [1] (G6PD-deficient patient, sustained after the first dose) was “decrease”. Moreover, the “inflammatory markers (CRP and ferritin)” value in data set [1] is “significant overall reduction”. In addition, in [1] (listed as NAC), the “inflammatory markers (CRP and ferritin)” value was “significantly reduced”. Besides, the patients eventually discharged entry in [1] (of ten patients) is listed as “Eight”. Also, the lung functions entry in data set [1] (ten respirator-dependent COVID-19 patients) was “improved”. The bioavailability in data set [2] (po) is recorded as 6-10%. In data set [2], the “half-life, reduced N-acetylcysteine” value was “about 2 h” and the “half-life, total N-acetylcysteine” value is on record as “about 6 h”.
As for `[Se]` [selenium], in [3], the “drop in IL-1beta, R value” was −0.624 and the “drop in IL-6, R value” is recorded as 0.642. In addition, the “serum high sensitivity C-reactive protein” value in data set [4] (P<0.001) is recorded as “reduced”. In addition, in data set [4] (P=0.001), the total glutathione entry is “significantly increased”.
Take `[Zn]` [Zinc]: the “concentration of plasma hsCRP, IL-6, MCP-1, VCAM-1, secretory phospholipase A2, MDA+HAE” value in [5] is recorded as “decreases”.
One may read the IC50 as the concentration at which inhibition is half-maximal. In the case of `N=C(N)c1ccc2cc(OC(=O)c3ccc(N=C(N)N)cc3)ccc2c1` [Nafamostat], in data set [6], the “decrease of IC50, human lung cells vs monkey kidney cells” value is reported as 6000 fold. In addition, in data set [6] (human lung cells), the “potency relative to Remdesivir” value was 600 fold. Further, the half-inhibitory concentration (IC50) in data set [7] was 2.2 nM. In [8], the “COVID-induced cytopathogenic effect (CPE)” value was “inhibits”. Further, the “effect on the virus replication cycle” value in [8] (high levels of double-strand RNA in treated infected cells) is recorded as “limited effects”.
Take `C=C1CC[C@H](O)C/C1=C/C=C1\CCC[C@]2(C)[C@@H]([C@H](C)CCCC(C)(C)O)CC[C@@H]12` [calcifediol]: the “patients requiring admission to the ICU” value in data set [9] (oral, untreated 50%) is 2%. Further, the deaths result in data set [9] is given as “none died”.
Consider `Cc1c(O)cccc1C(=O)N[C@@H](CSc1ccccc1)[C@H](O)CN1C[C@H]2CCCC[C@H]2C[C@H]1C(=O)NC(C)(C)C` [nelfinavir, Nelfinavir], for which the “trough and peak serum concentration relative to EC50” value in [10] is recorded as “three to six times higher”. Also, the EC50 in data set [11] (read-out: effective concentration for 50% inhibition (EC50)) is 1130 nM. The EC90 in data set [11] (read-out: effective concentration for 90% inhibition (EC90)) was 1760 nM.
Heparin: the “benefit in less severe cases” value in data set [12] (less severe cases) is on record as “no benefit”. In data set [12] (most severe cases, reduced from 64%), the death rate is on record as 40%.
As for Aprotinin, the “increase of effectiveness by omeprazole” value in [13] is recorded as 2.7 fold.
